In patent US20150219624A1, “METHODS FOR IDENTIFYING ANTI-CANCER COMPOUNDS” (MEMORIAL SLOAN KETTERING CANCER CENTER, priority 2013, published 2015):

Legend:
KOPTK1 cells = assay: Metabolic labeling of nascent protein with L-azidohomoalanine (AHA); type: cell-based, human; conditions: 100 nM; p vs. vehicle 2×10−4
Description: (Non-radioactive) Metabolic labeling of nascent protein. KOPTK1 cells were labeled for nascent protein synthesis using Click-iTR AHA (L-azidohomoalanine) metabolic labeling reagent obtained from Invitrogen (cat no. C10102) as per manufacturer's instructions. Briefly, following silvestrol, Cycloheximide or DMSO treated cells were incubated in methionine free medium for 30 min prior to AHA labeling for 1 hr. Cells were fixed with 4% paraformaldehyde in PBS for 15 min, permeablized with 0.25% Triton X-100 in PBS for 15 min followed by one wash with 3% BSA. Cells were then stained using Alexa Fluor 488 Alkyne (Invitrogen cat no. A10267) with Click-iT Cell reaction Buffer Kit (Invitrogen cat no. C10269). Changes in mean fluorescence intensity as a measure of newly synthesized protein was detected by Flow cytometry analysis.
The number of ribosomes occupying a given transcript is given as gene specific RF reads per one million total reads (RPM).
FIG. 10 depicts ribosome profiling quality control data and effects on translation. A and B) Read counts by length of mapped sequence before and after filtering rRNA, linker reads, non-coding RNAs, short mapped sequences (“noisy” reads; see text and method for details). C and D) Read length frequency histograms and mapping analysis of ribosome footprint data after quality control filtering for vehicle treated cells (C) or silvestrol treated cells (D). […]

[1] = system: cap-dependent translation; assay: Dual-luciferase reporter assay (capped vs IRES-driven luciferase); type: cell-based; conditions: renilla and firefly luciferase either capped or under control of an IRES element
Description: Luciferase assays. Four tandem repeats of the (CGG)4 12-mer motif (GQs) or random sequence matched for length and GC content (random) were cloned into the 5′UTR of Renilla luciferase plasmid pGL4.73. Empty firefly luciferase plasmid pGL4.13 or HCV-IRES firefly were used as internal controls. Luciferase assays were performed using Dual-Luciferase Reporter Assay System (Promega E1960) following the manufacturer's instructions. GQs sequence: […]

Compound	max. reduction of nascent protein synthesis (AHA labeling) (KOPTK1 cells)	block of cap-dependent versus IRES-dependent translation [1]
C[C@@H]1C[C@@H]([C@H](O)CC2CC(=O)NC(=O)C2)C(=O)[C@@H](C)C1 [cycloheximide, Cycloheximide]	80%	
C[C@H]1C[C@@]2(O[C@H]3C[C@H]4[C@@H]5CC[C@H]6C[C@H](O)CC[C@]6(C)[C@H]5[C@@H](O)C[C@]4(C)[C@H]3[C@@]2(C)O)OC1(C)C [hippuristanol]		preferentially block cap-dependent over IRES-dependent translation
CC(/C=C/C(C)=C/[C@@H]1Cc2nc(cs2)[C@@H](C)C[C@@H](N)CC(=O)O[C@@H](C)C/C(C)=C/C=C\C(=O)O1)=C\CN(C)C [pateamine A, (3S,6Z,8E,11S,15R,17S)-15-amino-3-[(1E,3E,5E)-7-(dimethylamino)-2,5-dimethylhepta-1,3,5-trienyl]-9,11,17-trimethyl-4,12-dioxa-20-thia-21-azabicyclo[16.2.1]henicosa-1(21),6,8,18-tetraene-5,13-dione]		preferentially block cap-dependent over IRES-dependent translation
